Here are results for seven compounds from US20240279171A1, “METHODS FOR PREPARING CRYSTALLINE FORMS OF AMISULPRIDE” (SUNOVION PHARMACEUTICALS INC., priority 2021, published 2024).

Where two headings read alike, the source gives them in different places.

A short description of data set [1]: Particle size distribution by laser diffraction (Malvern Mastersizer 3000), Example 9. The data set is classed as physicochemical. The conditions noted are these: pre-sieved through 30 mesh screen, 0.2% Span 85 in hexanes. How it is done:
Prior to analysis, the Form A′ crystals of (S)-amisulpride and Form A crystals of (R)-amisulpride were separately pre-sieved through a 30 mesh screen. All material was passed through screen during this pre-sieving step including aggregates.
Particle size distribution (PSD) measurements were measured by laser diffraction using a Malvern Instruments Mastersizer 3000 particle size analyzer instrument operated with the instrumentation and parameters described in Table 7.
The samples were first sieved through a 30 mesh screen prior to suspension. Approximately 400 mg of the sieved sample was weighed into a 50 ml beaker and 40 ml of a 0.2% v/v Span 85 (Sorbitan trioleate) in hexanes dispersant solution (e.g., a dispersant solution prepared by dissolving 2 mL of Span 85 (Sorbitan trioleate) in 1 L of hexanes) added. The overhead stirrer impeller was placed slightly above the bottom of the beaker (about 1 to 1.5 cm) and stirred at 500 rpm. After 1 minute, a disposable graduated transfer pipette was used to remove about 3 mL of the sample suspension from the center position of the beaker between impeller shaft and beaker side, and midway between top of vortex and beaker bottom. The entire contents of the pipette were added to the Malvern sample cell without inverting the pipette and the pipette rinsed twice with the circulating dispersant from the sample cell. The obscuration should be between 7% and 15%, if the obscuration was less than 7%, another aliquot of sample was added, making sure to transfer the entire aliquot taken up in the transfer pipette to the instrument, in order to avoid, e.g., potential artifacts due to settling of the suspension within the pipette. If the obscuration was greater than 15%, the instrument was drained and rinsed, and the measurement performed using a smaller sample suspension aliquot. After a sample cell with acceptable obscuration was obtained, the sample was circulated in the Mastersizer Hydro MV circulation system for two minutes and the sample dispersion measured.

The conditions of data set [2]: DVS, 25° C., 0 to 95% relative humidity; '738 patent; cited from earlier work.
A short description of data set [3]: Dynamic vapor sorption (DVS) water sorption isotherm. The conditions noted are these: 25° C.; for hygroscopicity: DVS. The data set is classed as physicochemical. An excerpt:
In various embodiments, the hygroscopicity of a compound is characterized by dynamic vapor sorption (DVS). DVS is a gravimetric technique that measures how much of a solvent is absorbed by a sample by varying the vapor concentration surrounding the sample (e.g., relative humidity) and measuring the change in mass. DVS was used herein to generate water sorption isotherms, which represent the equilibrium amount of water vapor adsorbed and/or absorbed as a function of steady state relative water vapor pressure at a constant temperature.
Dynamic vapor sorption (DVS) isotherms were generated using a VTI SGA-100 Symmetric Vapor Sorption Analyzer. Analysis included pre-analysis drying at 25° C. with equilibrium criteria of 0.0000 wt % change in 5 minutes or a maximum of 180 minutes. Equilibrium criteria were the lesser of 0.01 wt % change in 5 minutes or 180 minutes at each RH step. […] Analysis was repeated for each sample in consecutive analyses (i.e., the sample was not removed from analyzer between analyses).
Tables 9A and 9B presents the DVS water sorption for crystalline enantiomeric amisulpride of Form A and Form A′ shown in FIG. 7A.

A short description of data set [4]: Specific surface area (SSA), nitrogen gas, Quantachrome Quadrasorb SI. The data set is classed as physicochemical. As to conditions: degassed 2 hours at 40° C. under vacuum. As for the experimental part:
Specific surface area (SSA) was measured using a Quantachrome Quadrasorb SI surface area analyzer performed at six-points over the relative pressure range of 0.1000 to 0.3500 in 0.0500 increments. Approximately 1.3 to 4.6 grams of sample were used per analysis and were weighed into bulb tubes. Samples in bulb tubes were degassed 2 hours at 40° C. under vacuum using the Quantachrome FlowVac degasser prior to surface area analysis. Nitrogen gas was used as the gas for the surface area analyses.

A short description of data set [5]: Particle size distribution (Malvern Mastersizer), Example 16. As to conditions: for PSD D10 (μm) / PSD D50 (μm) / PSD D90 (μm): cooling method Y (Example 4) vs cooling method X (Example 14); for D10 (μm) / D50 (μm) / D90 (μm): crystalline amisulpride used in the tablet formulations, Mastersizer 2000. The data set is classed as physicochemical. The text has this: The particle size distribution (PSD) of crystalline products prepared by the foregoing examples were examined. FIG. 10 presents a plot of the cooling profile comparison between the cooling profile X, using the recrystallization procedure of, e.g., Example 14, with cooling profile Y, using the recrystallization procedure of, e.g., Example 4 (Step 2). Recrystallization using the cooling methods of Example 14 (cooling method X) provided Form A′ having a smaller particle size distribution (e.g., D50 and D90 values) than Form A′ prepared by the methods of Example 4 (cooling method Y), as shown in the table below.
PSD data was obtained using a Malvern Instruments Mastersizer particle size analyzer instrument.
The PSD of the crystalline amisulpride used in the various formulations are provided below. Amisulpride corresponding to “small PSD” can be prepared using the recrystallization and cooling methods of, e.g., Examples 14 and 15 (i.e., cooling profile X of FIG. 10). Amisulpride corresponding to “large PSD” can be prepared using the recrystallization methods of Examples 1 and 3 (i.e., cooling profile Y of FIG. 10). The PSDs were measured using a Mastersizer 2000 particle size analyzer instrument as described above.

Where [6] appears, read: listed as Form A′ (averages of lots prepared by the methods of Example 4).

As for `CCN1CCC[C@@H]1CNC(=O)c1cc(S(=O)(=O)CC)c(N)cc1OC` [(R)-amisulpride Form A, (R)-4-Amino-N-[(1-ethyl-2-pyrrolidinyl)methyl]-5-(ethylsulfonyl)-2-methoxybenzamide], in data set [1], the “Average PSD D10 (μm)” value is 14.3 μm. The “Average PSD D50 (μm)” value in data set [1] is given as 47.7 μm. The “Average PSD D90 (μm)” value in data set [1] was 133.9 μm. Moreover, the hygroscopicity entry in data set [2] and in data set [3] was “substantially non-hygroscopic” throughout. Also, the “DVS Ads. at 95% RH” value in data set [3] was 0.14. For the same compound, the “Change Mass (wt %)” value is recorded as 0.000 wt % in data set [3] (Relative Humidity 1.39 %, elapse time 155.38 min); −0.003 wt % in data set [3] (Relative Humidity 4.79 %, elapse time 327.39 min); 0.003 wt % in data set [3] (Relative Humidity 10.00 %, elapse time 340.39 min); 0.009 wt % in data set [3] (Relative Humidity 14.96 %, elapse time 359.89 min); 0.015 wt % in data set [3] (Relative Humidity 19.81 %, elapse time 366.91 min); 0.020 wt % in data set [3] (Relative Humidity 24.91 %, elapse time 374.93 min). Further, the “Change Mass (wt %)” value in data set [3] (Relative Humidity 30.02 %, elapse time 382.94 min) is given as 0.026 wt %; in data set [3] (Relative Humidity 34.96 %, elapse time 390.96 min), 0.031 wt %; in data set [3] (Relative Humidity 39.94 %, elapse time 398.96 min) it was 0.038 wt %; in data set [3] (Relative Humidity 44.99 %, elapse time 406.96 min), 0.043 wt %; in data set [3] (Relative Humidity 49.99 %, elapse time 415.98 min) it was 0.049 wt %; in data set [3] (Relative Humidity 54.96 %, elapse time 424.99 min), 0.055 wt %. Further, the “Change Mass (wt %)” value in data set [3] (Relative Humidity 59.96 %, elapse time 434.01 min) is listed as 0.061 wt %; in data set [3] (Relative Humidity 64.91 %, elapse time 443.03 min) it was 0.067 wt %; in data set [3] (Relative Humidity 69.86 %, elapse time 452.04 min), 0.073 wt %; in data set [3] (Relative Humidity 74.86 %, elapse time 461.04 min) it was 0.080 wt %; in data set [3] (Relative Humidity 79.80 %, elapse time 470.04 min) it was 0.087 wt %; in data set [3] (Relative Humidity 84.74 %, elapse time 479.04 min), 0.101 wt %. In addition, the “Change Mass (wt %)” value in data set [3] (Relative Humidity 89.58 %, elapse time 488.06 min) amounted to 0.113 wt %; in data set [3] (Relative Humidity 94.72 %, elapse time 497.06 min), 0.135 wt %. In data set [4], the “SSA (m^2/g)” value was determined as 0.51 m^2/g.
On to `CCN1CCC[C@H]1CNC(=O)c1cc(S(=O)(=O)CC)c(N)cc1OC` [(S)-amisulpride Form A′, (S)-4-Amino-N-[(1-ethyl-2-pyrrolidinyl)methyl]-5-(ethylsulfonyl)-2-methoxybenzamide], for which the “Average PSD D10 (μm)” value in data set [1] amounted to 9.5 μm. For the same compound, in data set [1], the “Average PSD D50 (μm)” value was 32.3 μm. For the same compound, in data set [1], the “Average PSD D90 (μm)” value stood at 116.9 μm. Further, the hygroscopicity entry in data set [2] and in data set [3] was “substantially non-hygroscopic” in each case. The “DVS Ads. at 95% RH” value in data set [3] is recorded as 0.09. In addition, the “Change Mass (wt %)” value in data set [3] (Relative Humidity 1.41 %, elapse time 180.73 min) amounted to 0.000 wt %; in data set [3] (Relative Humidity 5.38 %, elapse time 195.14 min) it was 0.003 wt %; in data set [3] (Relative Humidity 10.12 %, elapse time 207.64 min), 0.006 wt %; in data set [3] (Relative Humidity 15.00 %, elapse time 219.64 min) it was 0.011 wt %; in data set [3] (Relative Humidity 19.73 %, elapse time 227.64 min) it was 0.017 wt %; in data set [3] (Relative Humidity 24.91 %, elapse time 235.64 min) it was 0.023 wt %. The “Change Mass (wt %)” value in data set [3] (Relative Humidity 29.95 %, elapse time 243.64 min) was 0.029 wt %; in data set [3] (Relative Humidity 34.98 %, elapse time 251.64 min), 0.033 wt %; in data set [3] (Relative Humidity 40.01 %, elapse time 260.64 min) it was 0.038 wt %; in data set [3] (Relative Humidity 44.94 %, elapse time 269.64 min), 0.042 wt %; in data set [3] (Relative Humidity 50.00 %, elapse time 278.64 min) it was 0.049 wt %; in data set [3] (Relative Humidity 55.02 %, elapse time 287.66 min), 0.053 wt %. Also, the “Change Mass (wt %)” value came out at 0.059 wt % in data set [3] (Relative Humidity 59.89 %, elapse time 296.66 min); 0.066 wt % in data set [3] (Relative Humidity 64.92 %, elapse time 305.66 min); 0.072 wt % in data set [3] (Relative Humidity 69.86 %, elapse time 314.66 min); 0.076 wt % in data set [3] (Relative Humidity 74.97 %, elapse time 323.66 min); 0.084 wt % in data set [3] (Relative Humidity 79.71 %, elapse time 332.66 min); 0.094 wt % in data set [3] (Relative Humidity 84.74 %, elapse time 341.66 min). Moreover, the “Change Mass (wt %)” value turned out to be 0.103 wt % in data set [3] (Relative Humidity 89.75 %, elapse time 350.66 min) and 0.114 wt % in data set [3] (Relative Humidity 94.55 %, elapse time 359.68 min). Further, the “PSD D10 (μm)” value in data set [5] (setting [6]) was 6.0 μm. For the same compound, the “PSD D50 (μm)” value in data set [5] (setting [6]) stood at 29.1 μm. For the same compound, the “PSD D90 (μm)” value in data set [5] (setting [6]) stood at 99.4 μm. The “SSA (m^2/g)” value in data set [4] turned out to be 0.65 m^2/g.
In the case of `CCN1CCC[C@@H]1CNC(=O)c1cc(S(=O)(=O)CC)c(N)cc1OC` [Form A large PSD], in data set [5], the “D10 (μm)” value was determined as 12.8 μm, the “D50 (μm)” value worked out at 94.9 μm and the “D90 (μm)” value came to 441.4 μm.
Take `CCN1CCC[C@@H]1CNC(=O)c1cc(S(=O)(=O)CC)c(N)cc1OC` [Form A small PSD]: in data set [5], the “D10 (μm)” value came out at 4.7 μm, the “D50 (μm)” value stood at 18.2 μm and the “D90 (μm)” value turned out to be 90.4 μm.
Consider `CCN1CCC[C@H]1CNC(=O)c1cc(S(=O)(=O)CC)c(N)cc1OC` [Form A′ large PSD], for which, in data set [5], the “D10 (μm)” value stood at 31.6 μm, the “D50 (μm)” value was determined as 93.1 μm and the “D90 (μm)” value is reported as 425.4 μm.
With `CCN1CCC[C@H]1CNC(=O)c1cc(S(=O)(=O)CC)c(N)cc1OC` [Form A′ prepared by Example 14, (S)-4-Amino-N-[(1-ethyl-2-pyrrolidinyl)methyl]-5-(ethylsulfonyl)-2-methoxybenzamide], in data set [5], the “PSD D10 (μm)” value was found to be 7.0 μm, the “PSD D50 (μm)” value is on record as 25.5 μm and the “PSD D90 (μm)” value was 83.9 μm.
Regarding `CCN1CCC[C@H]1CNC(=O)c1cc(S(=O)(=O)CC)c(N)cc1OC` [Form A′ small PSD], in data set [5], the “D10 (μm)” value is 5.1 μm, the “D50 (μm)” value worked out at 18.3 μm and the “D90 (μm)” value is recorded as 80.1 μm.
